# Source: patent US20150265680A1, “THERAPEUTIC AGENT FOR AMYOTROPHIC LATERAL SCLEROSIS” (DAIICHI SANKYO COMPANY, LIMITED, priority 2012, published 2015)
# Marks after values point to notes of the source that are not given here. Where a SMILES comes first, the peptide text is derived from it. Where no end group is shown, it is not given here. [ ]: non-standard residue; d: D form. The star is where a group is joined. d2Nal = N[C@H](Cc1ccc2ccccc2c1)C(=O)O; Octanoyl = CCCCCCCC(=O)*
# Columns and labels:
# SOD1^G93A mice [1] = assay: Repeated subcutaneous GHRP-6 or anamorelin from the age of 10 weeks: body weight, food intake, survival (Example 9); assay type: in vivo, mouse; conditions: mean ± SE; for Survival period: 1 mg/kg subcutaneously twice a day from age 10 weeks until death; for Amount of change in body weight / Food intake: 1 mg/kg subcutaneously twice a day from age 10 weeks, after 5-weeks of administration
# Description: In the experiment, 10-week-old SOD1^G93A mice were used, which were divided into 3 groups: a vehicle group, a GHRP-6 group, and an anamorelin group. GHRP-6 (1 mg/kg), anamorelin (1 mg/kg), or a vehicle (5% mannitol solution) was subcutaneously administered thereto twice a day from the age of 10 weeks until death. Their body weight and feed weight were measured before the start of administration and after 5-weeks of administration to calculate the amount of change in body weight and food intake. The survival period of each individual was also analyzed.
# [2] = tested on: rat adrenal pheochromocytoma-derived PC-12 cells; conditions: cited from earlier work
# Atrogin-1 mRNA = Atrogin-1 mRNA expression in gastrocnemial muscle by quantitative PCR under restricted feeding (Example 6); assay type: in vivo, mouse; conditions: relative to WT-control group = 100%, 7 weeks after start
# Description: (§1) In the experiment, 10-week-old SOD1^G93A and WT mice were used. The WT mice were divided into 2 group, one of which was raised under voluntary intake conditions (WT-control group) and the other of which was given 2.8 to 2.9 g/day which corresponded to approximately 90% of the daily food intake under voluntary intake conditions of the SOD1^G93A mice (WT-restricted feeding group).
# (§2) Human ghrelin (50 μg/day, approximately 2 mg/kg/day) was dissolved in a vehicle (saline solution) to prepare a dosing solution. An osmotic pump (ALZET® MINI-OSMOTIC PUMP MODEL 1004, DURECT Corporation) filled with the dosing solution or a saline solution was subcutaneously implanted into the back of each mouse for continuous subcutaneous administration. The administration was started from the age of 10 weeks, and the osmotic pump was replaced with a fresh one 4 weeks later.
# (§3) The gastrocnemial muscles were isolated, and after mRNA extraction, the Atrogin-1 and MuRF1 mRNA expression levels were measured by quantitative PCR. The measurement value of each group was calculated as a relative value when the average mRNA expression level in the WT-control group was defined as 100%.
# SOD1^G93A mice [3] = assay: Survival period with continuous subcutaneous human ghrelin from the age of 16 weeks (Example 8); assay type: in vivo, mouse; conditions: 50 μg/day continuous subcutaneous from age 16 weeks
# Description: as §2, with “In the experiment, 16-week-old SOD1^G93A mice were used, which were divided into 2 groups: a vehicle group and a human ghrelin group. Human” for “Human”, “16 weeks” for “10 weeks,”, “and continued to the live individuals with” for “and”, “pump” for “pump was”, “one every” for “one”, “weeks. The survival period of each individual was analyzed.” for “weeks later.”
# SOD1^G93A mice [4] = assay: Repeated subcutaneous human ghrelin from the age of 10 weeks: body weight, food intake, muscle strength, survival (Example 5); assay type: in vivo, mouse
# Description: In the experiment, 10-week-old SOD1^G93A mice were used, which were divided into 2 groups: a vehicle group and a human ghrelin group. Human ghrelin (1 mg/kg) or a vehicle (5% mannitol solution) was subcutaneously administered thereto twice a day from the age of 10 weeks until death. Their body weights and feed weights were measured before the start of administration and after 8-weeks of administration to calculate the amount of change in body weights and the food intakes. The forelimb muscle strengths were measured using a rat/mouse simple sthenometer; 200 g scale (O'HARA & CO., LTD.) before the start of administration and after 8-weeks of administration. The survival period of each individual was also analyzed.
# SOD1^G93A mice [5] = assay: Continuous subcutaneous human ghrelin from the age of 10 weeks: body weight, food intake, skeletal muscle mass, cholesterol, muscle strength, survival (Example 3); assay type: in vivo, mouse
# Description: In some Examples, the WT mice were also used.
# as §2, with “In the experiment, 10-week-old SOD1^G93A mice were used, which were divided into 2 groups: a vehicle group and a human ghrelin group. Human” for “Human”, “weeks” for “weeks,”, “and continued to the live individuals with” for “and”, “pump” for “pump was”, “one every” for “one”, “weeks.” for “weeks later.”
# Their body weight and feed weight was measured before the start of administration and after 8-weeks of administration to calculate the amount of change in body weight and the food intake. After 8-weeks of administration, the lower-body skeletal muscle masses of the mice were measured using X-ray CT (Latheta LCT-200, Hitachi Aloka Medical, Ltd.). The plasma total cholesterol concentrations were measured with Cholesterol E—Test Wako (Wako Pure Chemical Industries, Ltd.) using plasma separated from blood collected from the tail vein after 8-weeks of administration. The forelimb muscle strengths were measured using a rat/mouse simple sthenometer; 200 g scale (O'HARA & CO., LTD.) on the 16th week of age. The survival period of each individual was also analyzed.
# MuRF1 mRNA = MuRF1 mRNA expression in gastrocnemial muscle by quantitative PCR under restricted feeding (Example 6); assay type: in vivo, mouse; conditions: relative to WT-control group = 100%, 7 weeks after start
# Description: as §1, §2, §3
# SOD1^G93A mice [6] = assay: Continuous subcutaneous human ghrelin under restricted feeding: body weight, skeletal muscle, motor neurons, muscle strength (Example 6); assay type: in vivo, mouse; conditions: 50 μg/day continuous subcutaneous
# Text: In this Example, SOD1^G93A mice were raised under restricted feeding by which the daily food intake of the SOD1^G93A mice under voluntary intake conditions was set to approximately 90%. […] The administered ghrelin was examined for its effects on body weight, skeletal muscle mass, muscle strength, the number of motor neurons, and mRNA expression of Atrogin-1 and Muscle RING-finger protein-1 (MuRF1), which are both involved in skeletal muscle wasting.
# as §1, §2
# Their body weights were measured at the start day of administration and after 6 weeks to calculate the amount of change in body weight.
# The forelimb muscle strength was measured using a rat/mouse simple sthenometer; 200 g scale (O'HARA & CO., LTD.) 7 weeks after the start of administration.
# The lower-body skeletal muscle masses of the mice were measured using X-ray CT (Latheta LCT-200, Hitachi Aloka Medical, Ltd.) before the start of administration (at the age of 10 weeks) and after 7 weeks to determine the amount of change in skeletal muscle mass.
# Then, the mice were anatomized, and the T9 regions of their spinal cords were extracted. Nissl-stained sections were prepared, and the number of motor neurons was histologically identified. Three non-adjacent sections were used per individual to measure the number of motor neurons present in the anterior horn. The measurement value of each group was calculated as a relative value when the average number of motor neurons in the WT-control group was defined as 100%.
# SOD1^G93A mice [7] = assay: Motor neuron protective effect of continuous subcutaneous human ghrelin, Nissl-stained T9 spinal cord sections (Example 4); assay type: in vivo, mouse; conditions: relative to WT control group = 100%; 50 μg/day continuous subcutaneous, 7 weeks after start, T9 anterior horn; mean ± SE
# Description: In the experiment, 10-week-old SOD1^G93A and WT mice were used. […] Vehicle-administered WT mice were used as a control group. Human ghrelin (50 μg/day, approximately 2 mg/kg/day) was dissolved in a vehicle (saline solution) to prepare a dosing solution. An osmotic pump (ALZET® MINI-OSMOTIC PUMP MODEL 1004, DURECT Corporation) filled with the dosing solution or a saline solution was subcutaneously implanted into the back of each mouse for continuous subcutaneous administration. The administration was started from the age of 10 weeks and continued after replacement of the osmotic pump with a fresh one 4 weeks later. Seven weeks after the start of administration, the mice were anatomized, and the T9 regions of their spinal cords were extracted. Nissl-stained sections were prepared, and the number of motor neurons was histologically identified. Three non-adjacent sections were used per individual to measure the number of motor neurons present in the anterior horn. The measurement value of each group was calculated as a relative value when the average number of motor neurons in the control group was defined as 100%.
# [8] = 1 mg/kg subcutaneously twice a day from age 10 weeks, after 8-weeks of administration, mean ± SE
# [9] = 50 μg/day continuous subcutaneous from age 10 weeks, after 8-weeks of administration, mean ± SE
compound,measurement,setting,value
"C[C@H](NC(=O)[C@@H](Cc1c[nH]c2ccccc12)NC(=O)[C@@H](N)Cc1c[nH]cn1)C(=O)N[C@@H](Cc1c[nH]c2ccccc12)C(=O)N[C@H](Cc1ccccc1)C(=O)N[C@@H](CCCCN)C(N)=O [GHRP-6, L-Histidyl-D-tryptophyl-L-alanyl-L-tryptophyl-D-phenylalanyl-L-lysinamide] (H-H[dW]AW[dF]K-NH2)",Survival period,SOD1^G93A mice [1],138 ± 2 (30) day
same,Amount of change in body weight,SOD1^G93A mice [1],1.9 ± 0.2 (30) g
same,Food intake,SOD1^G93A mice [1],142.7 ± 2.1 (30) g
"CN(C)N(C)C(=O)[C@@]1(Cc2ccccc2)CCCN(C(=O)[C@@H](Cc2c[nH]c3ccccc23)NC(=O)C(C)(C)N)C1 [Anamorelin, 2-Amino-N-{(1R)-2-[3-benzyl-3-(N,N′,N′-trimethylhydrazinocarbonyl)piperidin-1-yl]-1-((1H-indol-3-yl)-2-oxoethyl)-2-methylpropionamide}]",Survival period,SOD1^G93A mice [1],136 ± 2 (31) day
same,Amount of change in body weight,SOD1^G93A mice [1],0.9 ± 0.2 (31) g
same,Food intake,SOD1^G93A mice [1],139.5 ± 2.5 (31) g
"C[C@H](NC(=O)[C@@H](Cc1ccc2ccccc2c1)NC(=O)[C@@H](C)N)C(=O)N[C@@H](Cc1c[nH]c2ccccc12)C(=O)N[C@H](Cc1ccccc1)C(=O)N[C@@H](CCCCN)C(N)=O [Pralmorelin, D-Alanyl-D-(2-naphthyl)alanyl-L-alanyl-L-tryptophyl-D-phenylalanyl-L-lysinamide] (H-[dA][d2Nal]AW[dF]K-NH2)","Increase of the proportion of PC-12 cells having dendrites and axons 1.5 times larger than the size of the cells, compared with a control group",[2],approximately 1.2 times
"Human ghrelin: peptide of 28 amino acids (SEQ ID NO: 1), hydroxy group of the 3rd residue (serine) acylated with n-octanoyl group; endogenous GHS-R ligand (GSS(Octanoyl)FLSPEHQRVQQRKESKKPPAKLQPR; listed as Homo sapiens)",Atrogin 1 mRNA expression level,Atrogin-1 mRNA,205 ± 34 %
same,Survival period longer on average than the survival days of the vehicle group,SOD1^G93A mice [3],17.6%
same,Survival period,SOD1^G93A mice [3]; mean ± SE,180 ± 11 (9) day
same,Survival period longer on average than the survival days of the vehicle group,SOD1^G93A mice [4]; 1 mg/kg subcutaneously twice a day from age 10 weeks,21.8%
same,Survival period,"SOD1^G93A mice [4]; 1 mg/kg subcutaneously twice a day from age 10 weeks until death, mean ± SE",179 ± 8 (13) day
same,Amount of change in body weight,SOD1^G93A mice [4]; [8],2.1 ± 0.4 (13) g
same,Food intake,SOD1^G93A mice [4]; [8],176.2 ± 3.5 (13) g
same,Change in forelimb muscle strength,"SOD1^G93A mice [4]; 1 mg/kg subcutaneously twice a day, from age 10 weeks to after 8-weeks of administration, mean ± SE",−0.08 ± 0.07 (13) N
same,Survival period longer on average than the survival days of the vehicle group,SOD1^G93A mice [5]; 50 μg/day continuous subcutaneous from age 10 weeks,13.8%
same,Amount of change in body weight,SOD1^G93A mice [5]; [9],2.6 ± 0.4 (15) g
same,Food intake,SOD1^G93A mice [5]; [9],188.2 ± 3.6 (15) g
same,Survival period,"SOD1^G93A mice [5]; 50 μg/day continuous subcutaneous from age 10 weeks, mean ± SE",173 ± 4 (15) day
same,Forelimb muscle strength,"SOD1^G93A mice [5]; 50 μg/day continuous subcutaneous, after 6-weeks of administration (16th week of age), mean ± SE",0.96 ± 0.05 (15) N
same,Lower-body skeletal muscle mass,"SOD1^G93A mice [5]; 50 μg/day continuous subcutaneous, after 8-weeks of administration, X-ray CT, mean ± SE",5.7 ± 0.3 (15) g
same,Plasma total cholesterol concentration,"SOD1^G93A mice [5]; 50 μg/day continuous subcutaneous, after 8-weeks of administration, mean ± SE",85.8 ± 4.0 (15) mg/dL
same,MuRF1 mRNA expression level,MuRF1 mRNA,207 ± 36 %
same,The number of motor neurons,"SOD1^G93A mice [6]; relative to WT-control group = 100%, restricted feeding, T9 anterior horn",66 ± 5 %
same,Amount of change in body weight,"SOD1^G93A mice [6]; restricted feeding 2.8 to 2.9 g/day, 6 weeks after start","−1.4 ± 0.7**^,## g"
same,Forelimb muscle strength,"SOD1^G93A mice [6]; restricted feeding, 7 weeks after start",0.77 ± 0.06 N
same,Amount of change in lower-body skeletal muscle,"SOD1^G93A mice [6]; restricted feeding, 7 weeks after start, X-ray CT","−0.9 ± 0.2**^,# g"
same,The number of motor neurons,SOD1^G93A mice [7],"84 ± 7 (7)*^,## %"
